Measurements published in publication PMC8044178, “Structural basis of norepinephrine recognition and transport inhibition in neurotransmitter transporters” (Nature Communications, 2021).
Read-outs that look alike come from different tables or passages of the source.

Legend:
hDAT [1] = target: hDAT; design: method as in earlier work; details: vs. RTI-55; ref 4 (Supplementary: Vaishnavi et al., 2004); read-out: Binding Inhibition (Ki), hDAT; cited from earlier work
dDATNET = target: T1, dDATNET (Drosophila melanogaster, UniProt Q7K4Y6, D121G/DEL162-202/F471L/L415A/S426M/V74A); experiment: biochemical; format: binding
T1 construct: GFP-8x-His (C); made in house; host or cells: HEK293S GnTI- cells, BacMam baculovirus transduction
Experimental: (§1) Binding assays were performed with 20 nM of purified dDAT protein by scintillation proximity assay. For determining nisoxetine Kd, [^3H] Nisoxetine (Perkin Elmer) (in 1:5 molar ratio) was used in the range of 0.1 nM to 500 nM with 100 µM desipramine added to the control samples. Competition assays were done with 50 nM [^3H] […] The assays were done in 1 mM DDM, 0.2 mM CHS, 20 mM Tris-Cl (pH 8), 300 mM NaCl and 5% glycerol. The background values were subtracted to plot the final curves in GraphPad prism v5.0.1 and the Kd values were calculated. The IC50 values obtained from binding competition assays were used to deduce the Ki values by Cheng–Prusoff’s equation.

dDATfc A117S/A428S = target: T2, dDATfc A117S/A428S (Drosophila melanogaster, UniProt Q7K4Y6, A117S/A428S/DEL164-191/F471L/L415A/V74A); experiment: cell-based; format: cell-based
T2 construct: expressed in transfected cells; host or cells: HEK293S GnTI- cells, transient transfection with pEG-BacMam plasmid
Experimental: (§2) Earlier studies have posited that non-conserved residues in the primary binding site are responsible for selective inhibition of biogenic amine uptake[57],[58]. […] Effects of these mutations were analyzed through uptake inhibition using the three SNRIs employed in this study (Fig. 6a–c). […] Supplementary Table 2)[56],[59].
(§3) Additional mutations in the subsite B or subsite C were incorporated into this gene used for carrying out the uptake assays.
(§4) Cells were transiently transfected with pEG-BacMam plasmid harboring the dDAT cGFP gene and incubated for 35–40 hrs at 37 °C with 5% CO2 and 80% humidity. […] The transport activity was arrested with 0.5 ml of pre-chilled assay buffer containing 100 μM desipramine (Sigma Aldrich) added to each reaction. The cells were then washed twice with the same buffer before solubilizing them in 0.1 ml of 20 mM DDM for one hour at room temperature. […] Following this, 0.1 ml of the supernatant was added to 0.5 ml of scintillation fluid (Ultima Gold, Perkin Elmer) and the radioactivity was estimated on MicroBeta scintillation counter (Perkin Elmer). […] The background-subtracted, dose–response plots were analyzed using GraphPad Prism v.5.0.1 and Ki values were determined from Cheng–Prusoff’s equation using the IC50 values obtained from the experiments.

dDATmfc = target: T3, dDATmfc (Drosophila melanogaster, UniProt Q7K4Y6, DEL162-202/F471L/L415A/V74A); experiment: biochemical; details: read-out: Percent binding
T3 construct: GFP-8x-His (C); made in house; host or cells: HEK293S GnTI- cells, BacMam baculovirus transduction
Experimental: as §1

hNET [2] = details: read-out: Binding Inhibition (Ki), hNET; cited from earlier work
dDATfc A117S = target: T4, dDATfc A117S (Drosophila melanogaster, UniProt Q7K4Y6, A117S/DEL164-191/F471L/L415A/V74A); experiment: cell-based
T4 construct: expressed in transfected cells; host or cells: HEK293S GnTI- cells, transient transfection with pEG-BacMam plasmid
Experimental: as §2, §3, §4

dDATfc A428S = target: T5, dDATfc A428S (Drosophila melanogaster, UniProt Q7K4Y6, A428S/DEL164-191/F471L/L415A/V74A); experiment: cell-based
T5 construct: expressed in transfected cells; host or cells: HEK293S GnTI- cells, transient transfection with pEG-BacMam plasmid
Experimental: as §2, §3, §4

[3] = target: T6, dDATfc (Drosophila melanogaster dopamine transporter functional construct) (Drosophila melanogaster, UniProt Q7K4Y6, DEL164-191/F471L/L415A/V74A); experiment: cell-based
T6 construct: expressed in transfected cells; host or cells: HEK293S GnTI- cells, transient transfection with pEG-BacMam plasmid
Experimental: as §3, §4

hDAT [4] = details: read-out: Uptake Inhibition Ki, hDAT; ref 4 (Supplementary: Vaishnavi et al., 2004); cited from earlier work
hNET [5] = details: read-out: Uptake Inhibition Ki, hNET; cited from earlier work

For `CCN(CC)C(=O)[C@]1(c2ccccc2)C[C@@H]1CN` [Milnacipran, 1R-2S milnacipran], which Ki (hDAT [1]) is on record?
Its Ki is greater than 100 µM.

And the Ki (dDATNET; Binding Ki with dDATNET (vs. Nisoxetine), 50 nM [3H] nisoxetine, Cheng-Prusoff)?
Its Ki is 0.605 ± 0.0253 µM.

And the remaining activity at 300 µM (dDATNET; read-out: Percent binding, DAT NET, Log Milnacipran (M) -3.52288, replicate values)?
The remaining activity at 300 µM was 3.09%.

And the remaining activity at 100 µM (dDATNET; read-out: Percent binding, DAT NET, Log Milnacipran (M) -4, replicate values)?
Its remaining activity at 100 µM is 12%.

What about the remaining activity at 30 µM (dDATNET; read-out: Percent binding, DAT NET, Log Milnacipran (M) -4.52288, replicate values) of the same compound?
The remaining activity at 30 µM was 31.5%.

What about the remaining activity at 10 µM (dDATNET; read-out: Percent binding, DAT NET, Log Milnacipran (M) -5, replicate values) of the same compound?
Its remaining activity at 10 µM is 60%.

What about the remaining activity at 3 µM (dDATNET; read-out: Percent binding, DAT NET, Log Milnacipran (M) -5.52288, replicate values) of the same compound?
Its remaining activity at 3 µM is 78.6%.

What about the IC50 (dDATfc A117S/A428S) of the same compound?
The IC50 was 8.9 ± 0.3 µM.

What about the inhibition at 100 µM (dDATfc A117S/A428S; 0.5 h, read-out: Percent inhibition of DA uptake, A117S_A428S, Log[compound] M = -4, single replicates) of the same compound?
Its inhibition at 100 µM is 6.51%.

And the inhibition at 30 µM (dDATfc A117S/A428S; 0.5 h, read-out: Percent inhibition of DA uptake, A117S_A428S, Log[compound] M = -4.52288, single replicates)?
Its inhibition at 30 µM is 16.4%.

And the inhibition at 10 µM (dDATfc A117S/A428S; 0.5 h, read-out: Percent inhibition of DA uptake, A117S_A428S, Log[compound] M = -5, single replicates)?
The inhibition at 10 µM was 35.5%.

And the inhibition at 3 µM (dDATfc A117S/A428S; 0.5 h, read-out: Percent inhibition of DA uptake, A117S_A428S, Log[compound] M = -5.52288, single replicates)?
The inhibition at 3 µM was 78.6%.

And the inhibition at 0.3 µM (dDATfc A117S/A428S; 0.5 h, read-out: Percent inhibition of DA uptake, A117S_A428S, Log[compound] M = -6.52288, single replicates)?
Its inhibition at 0.3 µM is 91.2%.

What about the inhibition at 0.1 µM (dDATfc A117S/A428S; 0.5 h, read-out: Percent inhibition of DA uptake, A117S_A428S, Log[compound] M = -7, single replicates) of the same compound?
The inhibition at 0.1 µM was 87.2%.

What about the inhibition at 0.03 µM (dDATfc A117S/A428S; 0.5 h, read-out: Percent inhibition of DA uptake, A117S_A428S, Log[compound] M = -7.52288, single replicates) of the same compound?
The inhibition at 0.03 µM was 89.7%.

And the remaining activity at 10 µM (dDATmfc; DATmfc, Log Milnacipran (M) -5, replicate values)?
Its remaining activity at 10 µM is 21.2%.

And the remaining activity at 0.03 µM (dDATmfc)?
The remaining activity at 0.03 µM was 98.1%.

What about the remaining activity at 0.3 µM (dDATmfc) of the same compound?
The remaining activity at 0.3 µM was 86.3%.

What about the remaining activity at 3 µM (dDATmfc) of the same compound?
The remaining activity at 3 µM was 47.5%.

What about the Ki (hNET [2]) of the same compound?
The Ki was 0.022 ± 0.00258 µM.

What about the IC50 (dDATfc A117S) of the same compound?
The IC50 was 2.8 ± 0.2 µM.

And the inhibition at 10 µM (dDATfc A117S; 0.5 h, read-out: Percent inhibition of DA uptake, A117S, Log[compound] M = -5, single replicates)?
Its inhibition at 10 µM is 21.8%.

And the inhibition at 2.3 µM (dDATfc A117S; 0.5 h, read-out: Percent inhibition of DA uptake, A117S, Log[compound] M = -5.63827, single replicates)?
Its inhibition at 2.3 µM is 62.3%.

What about the inhibition at 1 µM (dDATfc A117S; 0.5 h, read-out: Percent inhibition of DA uptake, A117S, Log[compound] M = -6, single replicates) of the same compound?
Its inhibition at 1 µM is 87.2%.

And the inhibition at 0.1 µM (dDATfc A117S; 0.5 h, read-out: Percent inhibition of DA uptake, A117S, Log[compound] M = -7, single replicates)?
Its inhibition at 0.1 µM is 99.6%.

And the inhibition at 0.023 µM (dDATfc A117S; 0.5 h, read-out: Percent inhibition of DA uptake, A117S, Log[compound] M = -7.63827, single replicates)?
Its inhibition at 0.023 µM is 94.7%.

What about the IC50 (dDATfc A428S) of the same compound?
Its IC50 is 6.6 ± 0.4 µM.

And the inhibition at 100 µM (dDATfc A428S; 0.5 h, read-out: Percent inhibition of DA uptake, A428S, Log[compound] M = -4, single replicates)?
The inhibition at 100 µM was 7.1%.

What about the inhibition at 30 µM (dDATfc A428S; 0.5 h, read-out: Percent inhibition of DA uptake, A428S, Log[compound] M = -4.52288, single replicates) of the same compound?
The inhibition at 30 µM was 15.3%.

And the inhibition at 10 µM (dDATfc A428S; 0.5 h, read-out: Percent inhibition of DA uptake, A428S, Log[compound] M = -5, single replicates)?
The inhibition at 10 µM was 34.4%.

And the inhibition at 3 µM (dDATfc A428S; 0.5 h, read-out: Percent inhibition of DA uptake, A428S, Log[compound] M = -5.52288, single replicates)?
Its inhibition at 3 µM is 73.5%.

What about the inhibition at 0.1 µM (dDATfc A428S; 0.5 h, read-out: Percent inhibition of DA uptake, A428S, Log[compound] M = -7, single replicates) of the same compound?
Its inhibition at 0.1 µM is 107%.

And the inhibition at 0.03 µM (dDATfc A428S; 0.5 h, read-out: Percent inhibition of DA uptake, A428S, Log[compound] M = -7.52288, single replicates)?
The inhibition at 0.03 µM was 100%.

What about the IC50 [3] of the same compound?
The IC50 was 2.4 ± 0.1 µM.

And the Ki [3]?
Its Ki is 1.5 ± 0.1 µM.

What about the inhibition at 100 µM ([3]; HEK293S, 0.5 h, read-out: Percent inhibition of DA uptake, dDATfc, Log[compound] M = -4, single replicates) of the same compound?
The inhibition at 100 µM was 3.99%.

What about the inhibition at 30 µM ([3]; HEK293S, 0.5 h, read-out: Percent inhibition of DA uptake, dDATfc, Log[compound] M = -4.52288, single replicates) of the same compound?
Its inhibition at 30 µM is 6.55%.

What about the inhibition at 10 µM ([3]; HEK293S, 0.5 h, read-out: Percent inhibition of DA uptake, dDATfc, Log[compound] M = -5, single replicates) of the same compound?
The inhibition at 10 µM was 22.7%.

And the inhibition at 3 µM ([3]; HEK293S, 0.5 h, read-out: Percent inhibition of DA uptake, dDATfc, Log[compound] M = -5.52288, single replicates)?
The inhibition at 3 µM was 46.8%.

And the inhibition at 1 µM ([3]; HEK293S, 0.5 h, read-out: Percent inhibition of DA uptake, dDATfc, Log[compound] M = -6, single replicates)?
Its inhibition at 1 µM is 82.4%.

And the Ki (hDAT [4])?
Its Ki is greater than 100 µM.

And the Ki (hNET [5])?
The Ki was 0.052 ± 0.009 µM.
